Measurements as given in patent US7820834B2, “Triptolide 5,6-derivatives as immunomodulators and anticancer agents” (Pharmagenesis, Inc., priority 2004, dated 2010).

Assays:
Assay type in all cases: cell-based
[1] = system: Jurkat human T lymphoma cell line; test: Annexin V Apoptosis Assay; details: 24 h, dose-dependent, FIG. 1
Protocol: Test samples were diluted to 1 mM in complete tissue culture medium (RPMI 1640 medium plus 5% heat-inactivated fetal calf serum, 1% HEPES, 1% pen/strep, 1% glutamine). Aliquots were placed in microculture plates and serial dilutions were prepared so that the final concentration would encompass the range of 2 to 6,000 nM with half-log increments. Cells from an exponentially expanding culture of the Jurkat human T lymphoma cell line (#TIB-152 obtained from American Type Culture Collection, Manassas, Va.) were harvested, washed once by centrifugation, re-suspended in complete tissue culture medium, and further diluted to a concentration of 1×10^6 cells/ml. A volume of 100 μl of the cells (1×10^5 cells) was added to wells containing 100 μl of the diluted compounds, and the plates were incubated at 37° C. in a 5% CO2 incubator.
After 24 hours, the plates were centrifuged to pellet the cells, and the cells were washed twice with 2% heat-inactivated fetal calf serum in PBS. […] The contents of the wells were individually transferred into test tubes, and apoptosis was analyzed using a FACSCalibur flow cytometer (BD Immunocytometry Systems, San Jose, Calif.). Cells positive for Annexin V binding were considered to be apoptotic, and the data were calculated as percent apoptotic cells. […]

[2] = system: IL-2 production in Jurkat cells; test: IL-2 Inhibition Assay; details: without previous incubation in human serum, FIG. 4
Protocol: Test compounds were diluted to 1 mM in complete tissue culture medium. Aliquots were placed in microculture plates coated with anti-CD3 antibody (used to stimulate the production of IL-2 by Jurkat cells), and serial dilutions were prepared so that the final concentration would encompass the range of 0.001 to 10,000 nM in log increments.
Invention compound 14-acetyl-5,6-didehydrotriptolide (designated PG746) was tested with and without a previous 16-hr incubation in human serum. Such incubation is expected to substantially convert the 14-acetyl group of PG746 to a 14-hydroxy group.
Cells from an exponentially expanding culture of Jurkat human T cell line (#TIB-152 obtained from American Type Culture Collection, Manassas, Va.) were harvested, washed once by centrifugation, re-suspended in complete tissue culture medium, and diluted to a concentration of 10^7 cells/ml. A volume of 50 μl of Jurkat cells was added to wells containing 100 μl of the diluted compounds, and the cells were stimulated with 50 ng/ml PMA and […] PHA. The plates were incubated at 37° C. in a 5% CO2 incubator. […] The stored supernatants were analyzed for human IL-2 concentration using the Luminex 100 (Luminex Corporation, Austin, Tex.), Luminex microspheres coupled with anti-IL-2 capture antibody, and fluorochrome-coupled anti-IL-2 detection antibody. The data were expressed as pg/ml of IL-2. […]

[3] = system: human T cell lymphoma (Jurkat) cells; test: Cytotoxicity (MTT) Assay; details: FIG. 2
Protocol: Test compounds were dissolved in DMSO at a concentration of 20 mM. Further dilutions were done in RPMI1640 medium (GIBCO, Rockville, Md.) supplemented with 10% Fetal Calf Serum (HyClone Laboratories, Logan, Utah). Invention compound 14-acetyl-5,6-didehydrotriptolide (designated PG746) was tested with and without a previous 16-hr incubation in human serum. Such incubation is expected to substantially convert the 14-acetyl group of PG746 to a 14-hydroxy group.
Cytotoxicity of the compounds was determined in a standard MTT assay using Cell Proliferation Kit I (#1 465 007, Roche Diagnostics, Mannheim, Germany). Accordingly, human T cell lymphoma (Jurkat) cells (4×10^5 per well) were cultured for 24 h, in 96-well tissue culture plates, in the presence of serial three-fold dilutions of test compounds or medium containing the same concentration of DMSO as in the test samples at each dilution point. The cultures were then supplemented with 10 μl/well MTT reagent for 4 h and then with 0.1 ml/well solubilizing reagent for an additional 16 h. Optical density at 570 nm was measured on a ThermoScan microplate reader (Molecular Devices, Menlo Park, Calif.).
The data is presented as OD570 values versus concentration of the compounds. The results for invention compound 14-acetyl-5,6-didehydrotriptolide (designated PG746) and triptolide (designated PG490) are given in FIG. 2.

| Structure (SMILES) | induction of apoptosis (Annexin V positive cells) [1] | inhibition of IL-2 production, activity relative to the medium control [2] | concentrations at which the compound was clearly cytotoxic to Jurkat cells (MTT) ([3]; after incubation for 16 hours with human serum) | cytotoxicity (MTT), activity relative to the medium control ([3]; in assay medium, without previous incubation in human serum) |
| --- | --- | --- | --- | --- |
| CC(C)[C@]12O[C@H]1[C@@H]1O[C@]13[C@]1(O[C@H]1C[C@@]1(O)C4=C(CC[C@]31C)C(=O)OC4)[C@@H]2O [PG701, 5-α-hydroxytriptolide] | induced apoptosis in Jurkat cells |  |  |  |
| CC(=O)O[C@@H]1[C@@]2(C(C)C)O[C@H]2[C@@H]2O[C@]23[C@]12O[C@H]2C=C1C2=C(CC[C@@]13C)C(=O)OC2 [PG746, 14-acetyl-5,6-didehydrotriptolide] |  | no significant activity relative to the medium control | ≥ 1000 nM | no significant activity relative to the medium control |
